Assay results as given in ChEMBL document CHEMBL5126508, “Therapeutic potential of quinazoline derivatives for Alzheimer's disease: A comprehensive review” (Eur J Med Chem, 2022).
One block for each molecule: values may come before it.

How the values were obtained:
[1] = target: T1, Cyclin-dependent kinase 5 (Homo sapiens, UniProt Q00535); test: Inhibition of CDK5 (unknown origin) at 1 uM relative to control
Target sequence in this assay (Q00535 whole entry, looked up): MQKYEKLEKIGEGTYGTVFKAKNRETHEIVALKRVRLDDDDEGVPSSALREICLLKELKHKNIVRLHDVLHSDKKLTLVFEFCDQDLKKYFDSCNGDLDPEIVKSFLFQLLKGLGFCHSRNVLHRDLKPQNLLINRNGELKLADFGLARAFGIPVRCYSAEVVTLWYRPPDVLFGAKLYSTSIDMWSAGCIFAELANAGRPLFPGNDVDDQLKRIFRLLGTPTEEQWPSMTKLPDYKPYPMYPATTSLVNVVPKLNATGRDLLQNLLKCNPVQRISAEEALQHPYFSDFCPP

[2] = target: T2, Glycogen synthase kinase-3 (Homo sapiens, UniProt P49840+P49841); test: Inhibition of GSK3alpha/beta (unknown origin) at 1 uM relative to control; type: protein assay
[3] = target: T3, Casein kinase I delta/epsilon (Homo sapiens, UniProt P48730+P49674); test: Inhibition of CK1delta/epsilon (unknown origin); type: protein-complex assay
[4] = target: Dual specificity tyrosine-phosphorylation-regulated kinase 1A (Homo sapiens, UniProt Q13627); test: Inhibition of DYRK1A (unknown origin)
[5] = Inhibition of Kainate receptor (unknown origin); set-up: species or system Homo sapiens
[6] = Antioxidant activity assessed as radical scavenging at 100 ug/ml by DPPH assay relative to control; type: functional
[7] = target: Cyclin-dependent kinase 1 (Homo sapiens, UniProt P06493); test: Inhibition of CDK1 (unknown origin)
[8] = target: T2, Glycogen synthase kinase-3; test: Inhibition of GSK3alpha/beta (unknown origin); type: protein assay
[9] = target: T1, Cyclin-dependent kinase 5; test: Inhibition of CDK5 (unknown origin)
Beta-secretase 1 [10] = target: T4, Beta-secretase 1 (Homo sapiens, UniProt P56817); test: Inhibition of recombinant human BACE1 using fluorogenic 7-methoxycoumarin-4-yl)acetyl-Ser-Glu-Val-Asn-Leu-Asp-Ala-Glu-Phe-ArgLys(2, 4-dinitrophenyl)-Arg-Arg-NH2 as substrate measured every 5 mins for 120 mins by CFA
SH-SY5Y = test: Cytotoxicity against human SH-SY5Y cells; type: functional, cell-based
Beta-secretase 1 [11] = target: T4, Beta-secretase 1; test: Inhibition of recombinant human BACE1 in human SH-SY5Y cells using fluorogenic 7-methoxycoumarin-4-yl)acetyl-Ser-Glu-Val-Asn-Leu-Asp-Ala-Glu-Phe-ArgLys(2, 4-dinitrophenyl)-Arg-Arg-NH2 as substrate measured every 5 mins for 120 mins by WCA; type: cell-based
Cholinesterase [12] = target: Cholinesterase (Homo sapiens, UniProt P06276); test: Inhibition of BuChE (unknown origin)
Acetylcholinesterase [13] = target: T5, Acetylcholinesterase (Homo sapiens, UniProt P22303); test: Inhibition of AChE (unknown origin) incubated for 20 mins by TLC analysis
Cholinesterase [14] = target: T6, Cholinesterase (Equus caballus, UniProt P81908); test: Inhibition of equine serum BuChE
[15] = Ratio of IC50 for equine BuChE to IC50 for electric eel AChE
Acetylcholinesterase [16] = target: T7, Acetylcholinesterase (Electrophorus electricus, UniProt O42275); test: Inhibition of electric eel AChE
Acetylcholinesterase [17] = target: T5, Acetylcholinesterase; test: Inhibition of human AChE
[18] = Antioxidant activity assessed as radical scavenging incubated for 90 mins in dark DPPH assay; type: functional
Beta-secretase 1 [19] = target: T4, Beta-secretase 1; test: Inhibition of BACE1 (unknown origin) incubated in dark for 90 mins by FRET assay
Phosphodiesterase 4 = Phosphodiesterase 4 (Homo sapiens, UniProt P27815+Q08499+Q07343+Q08493); test: Inhibition of PDE4 (unknown origin); type: protein assay
[20] = target: 3',5'-cyclic-AMP phosphodiesterase 4D (Homo sapiens, UniProt Q08499); test: Inhibition of PDE4D2 (unknown origin)
Acetylcholinesterase [21] = target: T5, Acetylcholinesterase; test: Inhibition of AChE (unknown origin)
Cholinesterase [22] = target: T6, Cholinesterase; test: Inhibition of equine serum BuChE incubated measured after 25 mins by spectrophotometric analysis; type: cell-free
[23] = Ratio of IC50 for electric eel AChE to ratio of IC50 for equine BuChE
[24] = target: T8, Amine oxidase [flavin-containing] A (Homo sapiens, UniProt P21397); test: Inhibition of MAO-A (unknown origin)
T8 sequence (P21397 whole entry): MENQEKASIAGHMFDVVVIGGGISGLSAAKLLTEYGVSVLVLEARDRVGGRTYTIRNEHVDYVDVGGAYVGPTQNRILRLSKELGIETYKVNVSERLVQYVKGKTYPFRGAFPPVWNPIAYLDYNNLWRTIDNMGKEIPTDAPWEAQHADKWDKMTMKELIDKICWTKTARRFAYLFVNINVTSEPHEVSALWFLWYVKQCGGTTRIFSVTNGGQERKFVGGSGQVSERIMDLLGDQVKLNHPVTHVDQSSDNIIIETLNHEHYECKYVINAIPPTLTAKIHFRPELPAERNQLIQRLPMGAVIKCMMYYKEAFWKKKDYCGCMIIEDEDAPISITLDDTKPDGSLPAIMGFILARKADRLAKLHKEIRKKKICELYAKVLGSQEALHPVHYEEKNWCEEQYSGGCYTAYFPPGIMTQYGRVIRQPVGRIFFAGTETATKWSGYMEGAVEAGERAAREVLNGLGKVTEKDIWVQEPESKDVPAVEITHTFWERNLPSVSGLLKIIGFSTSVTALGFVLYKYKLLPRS

[25] = target: T9, Amine oxidase [flavin-containing] B (Homo sapiens, UniProt P27338); test: Inhibition of MAO-B (unknown origin)
T9 sequence (P27338 whole entry): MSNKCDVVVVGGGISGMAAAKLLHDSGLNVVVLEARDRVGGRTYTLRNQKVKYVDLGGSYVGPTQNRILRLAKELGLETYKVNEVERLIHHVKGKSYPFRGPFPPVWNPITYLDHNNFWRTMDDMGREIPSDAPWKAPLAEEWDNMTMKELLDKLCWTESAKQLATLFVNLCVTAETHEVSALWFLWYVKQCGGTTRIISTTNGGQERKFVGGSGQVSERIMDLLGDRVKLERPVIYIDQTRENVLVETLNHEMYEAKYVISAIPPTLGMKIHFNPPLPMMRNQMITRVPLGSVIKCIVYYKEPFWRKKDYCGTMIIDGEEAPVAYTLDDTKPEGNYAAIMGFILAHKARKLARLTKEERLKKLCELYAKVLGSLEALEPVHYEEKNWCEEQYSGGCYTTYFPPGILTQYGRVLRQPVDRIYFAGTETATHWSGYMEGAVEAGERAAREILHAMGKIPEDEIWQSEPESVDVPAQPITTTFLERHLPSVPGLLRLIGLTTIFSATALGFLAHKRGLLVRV

[26] = target: Cyclin-dependent kinase 2 (Homo sapiens, UniProt P24941); test: Inhibition of CDK2 (unknown origin)
[27] = target: Cyclin-dependent kinase 4 (Homo sapiens, UniProt P11802); test: Inhibition of CDK4 (unknown origin)
[28] = target: Cyclin-dependent kinase 3 (Homo sapiens, UniProt Q00526); test: Inhibition of CDK3 (unknown origin)
[29] = Inhibition of PDE7 (unknown origin); set-up: species or system Homo sapiens
[30] = target: T3, Casein kinase I delta/epsilon; test: Inhibition of CK1delta/epsilon (unknown origin) at 1 uM relative to control; type: protein-complex assay
Acetylcholinesterase [31] = target: T7, Acetylcholinesterase; test: Inhibition of electric eel AChE incubated measured after 25 mins by spectrophotometric analysis

T6 sequence (P81908 whole entry): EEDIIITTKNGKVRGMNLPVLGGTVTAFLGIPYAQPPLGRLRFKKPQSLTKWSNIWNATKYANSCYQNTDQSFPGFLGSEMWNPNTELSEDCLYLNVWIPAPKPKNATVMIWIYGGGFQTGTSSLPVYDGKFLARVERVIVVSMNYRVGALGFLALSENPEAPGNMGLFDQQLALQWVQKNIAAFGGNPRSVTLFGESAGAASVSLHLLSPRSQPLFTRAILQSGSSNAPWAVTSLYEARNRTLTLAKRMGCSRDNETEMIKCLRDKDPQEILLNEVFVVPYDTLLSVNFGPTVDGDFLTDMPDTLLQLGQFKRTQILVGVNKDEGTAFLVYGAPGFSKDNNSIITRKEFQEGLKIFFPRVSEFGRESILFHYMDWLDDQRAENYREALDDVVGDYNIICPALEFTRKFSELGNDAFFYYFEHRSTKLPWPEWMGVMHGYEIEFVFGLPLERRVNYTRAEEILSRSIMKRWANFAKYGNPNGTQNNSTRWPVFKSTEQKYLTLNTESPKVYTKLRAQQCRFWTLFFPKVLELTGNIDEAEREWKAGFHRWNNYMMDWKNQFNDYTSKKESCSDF
Chain of Cholinesterase (Homo sapiens, UniProt P06276) (P06276 whole entry): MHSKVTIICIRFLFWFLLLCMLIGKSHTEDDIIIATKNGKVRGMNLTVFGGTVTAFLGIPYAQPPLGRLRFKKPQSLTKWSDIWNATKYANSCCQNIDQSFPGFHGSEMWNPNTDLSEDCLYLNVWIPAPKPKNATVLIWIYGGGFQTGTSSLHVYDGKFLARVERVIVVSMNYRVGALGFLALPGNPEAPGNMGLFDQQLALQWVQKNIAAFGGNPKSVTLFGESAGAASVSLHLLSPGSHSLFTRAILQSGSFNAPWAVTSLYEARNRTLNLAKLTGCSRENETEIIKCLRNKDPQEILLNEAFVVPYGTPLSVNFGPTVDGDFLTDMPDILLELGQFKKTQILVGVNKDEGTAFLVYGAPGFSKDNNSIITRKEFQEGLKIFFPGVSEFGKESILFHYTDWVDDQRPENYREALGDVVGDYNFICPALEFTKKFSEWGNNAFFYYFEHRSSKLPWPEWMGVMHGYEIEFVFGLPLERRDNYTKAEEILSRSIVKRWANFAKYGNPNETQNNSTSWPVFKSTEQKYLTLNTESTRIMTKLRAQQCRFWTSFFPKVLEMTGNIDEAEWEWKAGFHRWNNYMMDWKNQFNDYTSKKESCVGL
T4 sequence (P56817 whole entry): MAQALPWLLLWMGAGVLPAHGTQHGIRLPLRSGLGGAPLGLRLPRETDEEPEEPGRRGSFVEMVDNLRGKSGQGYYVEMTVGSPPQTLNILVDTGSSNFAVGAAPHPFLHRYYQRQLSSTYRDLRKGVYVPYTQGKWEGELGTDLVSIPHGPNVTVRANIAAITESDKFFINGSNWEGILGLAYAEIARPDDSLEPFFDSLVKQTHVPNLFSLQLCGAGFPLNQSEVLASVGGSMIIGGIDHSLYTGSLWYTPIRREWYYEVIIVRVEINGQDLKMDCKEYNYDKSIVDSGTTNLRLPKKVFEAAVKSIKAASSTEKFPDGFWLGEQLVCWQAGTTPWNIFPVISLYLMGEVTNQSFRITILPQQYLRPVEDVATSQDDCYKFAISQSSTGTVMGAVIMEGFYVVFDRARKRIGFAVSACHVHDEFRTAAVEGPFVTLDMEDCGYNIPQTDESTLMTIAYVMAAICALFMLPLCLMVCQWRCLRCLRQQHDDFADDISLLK
T5 sequence (P22303 whole entry): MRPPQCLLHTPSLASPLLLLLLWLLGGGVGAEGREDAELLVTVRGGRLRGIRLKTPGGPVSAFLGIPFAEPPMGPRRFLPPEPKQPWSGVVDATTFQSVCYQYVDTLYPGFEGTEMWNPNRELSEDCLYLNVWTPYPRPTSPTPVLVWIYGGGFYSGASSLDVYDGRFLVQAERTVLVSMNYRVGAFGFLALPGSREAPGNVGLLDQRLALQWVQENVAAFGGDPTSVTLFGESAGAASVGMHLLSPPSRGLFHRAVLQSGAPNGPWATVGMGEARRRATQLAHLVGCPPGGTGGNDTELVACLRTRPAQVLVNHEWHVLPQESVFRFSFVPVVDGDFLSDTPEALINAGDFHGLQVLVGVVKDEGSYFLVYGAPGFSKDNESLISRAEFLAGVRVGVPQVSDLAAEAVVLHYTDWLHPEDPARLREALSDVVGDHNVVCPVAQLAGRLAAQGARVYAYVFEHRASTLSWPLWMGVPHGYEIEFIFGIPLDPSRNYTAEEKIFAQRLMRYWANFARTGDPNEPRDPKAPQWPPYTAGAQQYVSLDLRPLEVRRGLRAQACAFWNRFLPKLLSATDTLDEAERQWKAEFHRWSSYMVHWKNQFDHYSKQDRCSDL
T2 sequence (P49840 whole entry, looked up): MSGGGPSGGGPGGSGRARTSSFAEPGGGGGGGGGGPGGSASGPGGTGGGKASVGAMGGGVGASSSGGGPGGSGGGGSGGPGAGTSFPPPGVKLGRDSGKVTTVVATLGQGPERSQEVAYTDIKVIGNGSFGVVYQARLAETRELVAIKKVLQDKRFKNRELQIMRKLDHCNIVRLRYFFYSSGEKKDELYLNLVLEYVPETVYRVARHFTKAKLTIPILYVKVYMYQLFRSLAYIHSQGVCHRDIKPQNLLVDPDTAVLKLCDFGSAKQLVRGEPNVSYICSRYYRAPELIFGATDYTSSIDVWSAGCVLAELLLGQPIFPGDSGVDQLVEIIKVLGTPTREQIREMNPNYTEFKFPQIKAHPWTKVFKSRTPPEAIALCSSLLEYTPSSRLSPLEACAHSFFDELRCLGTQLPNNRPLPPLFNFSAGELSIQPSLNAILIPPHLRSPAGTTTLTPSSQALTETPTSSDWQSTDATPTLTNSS
T2 sequence (P49841 whole entry, looked up): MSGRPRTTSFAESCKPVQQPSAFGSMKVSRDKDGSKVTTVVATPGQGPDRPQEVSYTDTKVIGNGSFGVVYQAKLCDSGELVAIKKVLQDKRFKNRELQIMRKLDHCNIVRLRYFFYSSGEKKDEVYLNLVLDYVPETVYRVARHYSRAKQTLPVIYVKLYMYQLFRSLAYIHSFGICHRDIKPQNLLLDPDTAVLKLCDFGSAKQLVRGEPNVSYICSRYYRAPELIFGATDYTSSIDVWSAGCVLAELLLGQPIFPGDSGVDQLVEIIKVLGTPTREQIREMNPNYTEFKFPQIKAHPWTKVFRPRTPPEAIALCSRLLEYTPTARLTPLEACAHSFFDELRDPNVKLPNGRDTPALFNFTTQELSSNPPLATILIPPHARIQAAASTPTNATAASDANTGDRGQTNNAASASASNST
Chain of Cyclin-dependent kinase 1 (P06493 whole entry): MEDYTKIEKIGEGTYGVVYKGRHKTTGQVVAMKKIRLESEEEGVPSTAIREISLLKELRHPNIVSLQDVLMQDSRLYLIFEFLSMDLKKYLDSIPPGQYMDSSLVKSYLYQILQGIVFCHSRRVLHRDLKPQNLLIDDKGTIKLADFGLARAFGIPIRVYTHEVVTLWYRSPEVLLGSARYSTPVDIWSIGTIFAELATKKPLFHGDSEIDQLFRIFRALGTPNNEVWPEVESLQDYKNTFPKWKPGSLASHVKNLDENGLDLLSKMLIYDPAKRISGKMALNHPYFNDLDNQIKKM
T7 sequence (O42275 whole entry): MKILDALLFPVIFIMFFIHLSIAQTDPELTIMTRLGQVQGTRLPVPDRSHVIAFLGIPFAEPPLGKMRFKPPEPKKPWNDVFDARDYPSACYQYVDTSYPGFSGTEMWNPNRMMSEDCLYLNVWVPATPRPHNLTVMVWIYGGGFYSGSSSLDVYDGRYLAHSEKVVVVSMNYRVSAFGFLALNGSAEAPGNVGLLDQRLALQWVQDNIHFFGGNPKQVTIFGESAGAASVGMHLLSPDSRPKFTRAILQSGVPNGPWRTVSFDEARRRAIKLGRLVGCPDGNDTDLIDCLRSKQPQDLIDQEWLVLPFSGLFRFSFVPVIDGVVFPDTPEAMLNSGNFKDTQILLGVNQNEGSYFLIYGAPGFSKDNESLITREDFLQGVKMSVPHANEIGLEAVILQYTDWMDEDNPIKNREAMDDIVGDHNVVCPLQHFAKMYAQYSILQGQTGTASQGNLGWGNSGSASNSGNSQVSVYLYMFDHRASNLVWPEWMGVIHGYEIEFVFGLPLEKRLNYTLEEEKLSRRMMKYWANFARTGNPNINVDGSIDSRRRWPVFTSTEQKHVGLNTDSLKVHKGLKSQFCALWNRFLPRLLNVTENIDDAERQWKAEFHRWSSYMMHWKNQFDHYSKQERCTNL
Chain of Cyclin-dependent kinase 3 (Q00526 whole entry): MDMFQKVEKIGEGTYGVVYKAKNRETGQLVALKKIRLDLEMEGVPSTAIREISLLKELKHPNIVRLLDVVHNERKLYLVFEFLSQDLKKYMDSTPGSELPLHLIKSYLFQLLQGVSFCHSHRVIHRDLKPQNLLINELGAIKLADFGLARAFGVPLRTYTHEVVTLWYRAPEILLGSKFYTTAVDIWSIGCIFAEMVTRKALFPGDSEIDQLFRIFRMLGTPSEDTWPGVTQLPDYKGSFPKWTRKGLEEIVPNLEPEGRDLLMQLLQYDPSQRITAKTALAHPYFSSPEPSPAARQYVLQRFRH

inhibition [1]: > 10%
inhibition [2]: > 10%
IC50 [3]: 800 nM
IC50 [4]: 180 nM
Structure (SMILES): Nc1ncc2cc3cnccc3cc2n1

IC50 [5]: 5100 nM
Structure (SMILES): O=Cc1ccn(-c2cc3c(cc2Cl)nc(O)n2nc(C(=O)O)cc32)c1

Structure (SMILES): CSc1nc2nc(N/N=C/c3cccnc3)c3ccccc3n2n1
inhibition [6]: 62%

IC50 [7]: > 10000 nM
IC50 [8]: 160 nM
IC50 [9]: > 10000 nM
Structure (SMILES): COC(=N)c1nc2ccc3ncnc(Nc4ccc(Br)cc4F)c3c2s1

IC50 (Beta-secretase 1 [10]): 490 nM
IC50 (Beta-secretase 1 [11]): 140 nM
Structure (SMILES): Cn1cc(CN(C(=O)CCCN2C(N)=Nc3ccc(Oc4ccccc4)cc3C2CC2CCCCC2)C2CCCCC2)cn1 (stereo not drawn)
IC50 (SH-SY5Y): 11800 nM

Structure (SMILES): O=c1c2ccccc2nc2n1CC[C@@H]2[C@@H]1CCCN1
IC50 (Cholinesterase [12]): > 500000 nM
IC50 (Acetylcholinesterase [13]): 5710 nM

Structure (SMILES): c1cc2c(cc1OCCCN1CCCCC1)CN1CCCC1=N2
IC50 (Cholinesterase [14]): 122 nM
Ratio IC50 [15]: 1.76
IC50 (Acetylcholinesterase [16]): 69.2 nM
IC50 (Acetylcholinesterase [17]): 1100 nM

IC50 [18]: 8400 nM
IC50 (Beta-secretase 1 [19]): 27600 nM
Structure (SMILES): Cn1c(N/N=C/c2ccc(O)cc2O)nc2ccccc2c1=O

Structure (SMILES): C=CCNC(=S)NNc1nc2nc(SC)nn2c2ccccc12
inhibition [6]: 91%

Structure (SMILES): CSc1nc2ccccc2c(=O)n1-c1c(F)cccc1F
IC50 (Phosphodiesterase 4): 3500 nM
IC50 [20]: 3500 nM

Structure (SMILES): O=c1c2ccccc2nc2n1C(C1CN=Cc3[nH]c4ccccc4c31)CC2O (stereo not drawn)
IC50 (Cholinesterase [12]): 9260 nM
IC50 (Acetylcholinesterase [21]): 40500 nM

Structure (SMILES): CC(C)CC1(CC(C)C)NC(=O)c2ccccc2N1Cc1ccc(Cl)cc1
IC50 (Cholinesterase [22]): 1560 nM
Ratio IC50 [23]: 2.6

Structure (SMILES): O=c1[nH]c(CCCO)nc2ccccc12
IC50 (Cholinesterase [12]): 105000 nM
IC50 (Acetylcholinesterase [21]): 155000 nM

IC50 (Beta-secretase 1 [10]): 380 nM
IC50 (Beta-secretase 1 [11]): 140 nM
Structure (SMILES): CC1c2cc(Oc3ccccc3)ccc2N=C(N)N1CCCC(=O)N(Cc1cnn(C)c1)C1CCCCC1 (stereo not drawn)
IC50 (SH-SY5Y): 12500 nM

IC50 [24]: 2.1 nM
IC50 [25]: 83000 nM
Structure (SMILES): NNC(=O)CN1C(=O)c2ccccc2NC1c1ccc2c(c1)OCO2 (stereo not drawn)

IC50 [7]: 22.8 nM
IC50 [26]: 88.8 nM
IC50 [27]: 59 nM
IC50 [28]: > 10000 nM
Structure (SMILES): COC(=N)c1nc2ccc3ncnc(Nc4ccc(Cl)cc4Cl)c3c2s1

IC50 [18]: > 100000 nM
Structure (SMILES): Cn1c(N/N=C/c2cccc(Cl)c2Cl)nc2ccccc2c1=O

Structure (SMILES): CC(C)CC1(CC(C)C)NC(=O)c2ccccc2N1Cc1ccccc1
IC50 (Cholinesterase [22]): 2480 nM
Ratio IC50 [23]: 3.1

Structure (SMILES): c1ccc2c(c1)CN1CCCC1=N2
IC50 (Cholinesterase [12]): 40 nM
IC50 (Acetylcholinesterase [21]): 2370 nM

Structure (SMILES): OC1CCN2Cc3ccccc3N=C12 (stereo not drawn)
IC50 (Cholinesterase [12]): 2600 nM
IC50 (Acetylcholinesterase [21]): 13700 nM

Structure (SMILES): O=c1c2cccc(Cl)c2[nH]c(=S)n1-c1ccccc1Br
IC50 [29]: 1800 nM

inhibition [1]: 100%
inhibition [2]: 98%
inhibition [30]: 98%
IC50 [4]: 2180 nM
Structure (SMILES): Nc1ncc2ccc3ccncc3c2n1

Structure (SMILES): CC1(c2ccc(Cl)cc2)NC(=O)c2cc(Br)cc(Br)c2N1 (stereo not drawn)
IC50 (Cholinesterase [22]): 3700 nM
Ratio IC50 [23]: 2.3
IC50 (Acetylcholinesterase [31]): 1600 nM
